How the values were obtained:
target cell = format: cell-based; conditions: for transduction efficiency of a target cell, single enhancer (result in words): Amphotericin B 0.5-1 μg/mL, Silibinin 1 to 5 μM, Midostaurin 100 to 400 nM, Nystatin 100 μM, Natamycin 3 μM, Everolimus 1 μM, deoxyribonucleosides 0.3-2.5 mM, PEG-PLA-PEG 10 μg/mL, PEG-PCL-PEG 10 μg/mL, Resveratrol 5 μM, Prostaglandin E2 10 μM, Poloxamer synperonic F108 0.5-2 mg/mL, DMSO 1% (v/v), protamine salts 4 μg/mL; for suitability of approved therapeutic compounds as transduction enhancers (result in words): no concentration stated
Source text: The efficiency of a transduction experiment may be determined as known in the art. Preferably, transduction efficiency may be measured by determining the vector copy number (VCN) in a single cell after a transduction experiment or by measuring the average VCN in a population of cells after a transduction experiment. “Vector copy number” or “VCN” refers to the number of copies of a vector, or portion thereof, in a cell's genome. The average VCN may be determined from a population of cells or from individual cell colonies. Exemplary methods for determining VCN include any form of polymerase chain reaction (PCR), such as qPCR or digital droplet PCR, and flow cytometry. […] 479-487 or as described in Examples 1 or 5.
Several transduction enhancers and combinations of transduction enhancers reported herein result in an increase in transduction efficiency. An “increase in transduction efficiency” refers to an increase in VCN upon transduction of a cell population by a gene therapy vector in presence of a transduction enhancer compared to the absence of a transduction enhancer.

human CD34-positive HSC = test: Lentiviral SIN vector transduction of CD34-positive HSC at MOI 1, 3 or 5 in X-Vivo 20, VCN by qPCR (Example 1); conditions: each with 4 μg/mL protamine sulfate, VCN with protamine sulfate only set as 1, 1 μg/mL Amphotericin B, 1 mg/ml Lentiboost
Source text: This vector encodes human p47phox cDNA under control of the miR223 internal promoter. Cells were transduced in presence of protamine sulfate only (resulting VCN set to 100%), or in presence of protamine sulfate (PS) plus one or more compounds tested for transduction enhancer activity. After 10 to 12 days post transduction, DNA from transduced cells was isolated, and VCNs were quantified by qPCR. The increase in VCN relative to the VCN achieved upon transduction in presence of protamine sulfate only was expressed as “fold induction rel. to PS”.
Thawed cells from healthy donors were cultured in 96 well plates comprising X-Vivo 20 medium supplemented with 1% human serum albumin, 300 μg/ml stem cell factor (SCF), 300 μg/ml fins like tyrosine kinase 3 (FLT-3) ligand (Flt3-lig) and 100 μng/ml Thrombopoietin (TPO) at a density of 0.5 E6 cells/cm^2, and at a concentration of 1E6 cells/ml for 22h, optionally followed by 2h of pre-stimulation with below mentioned compounds. Afterwards, cells were incubated for transduction with the lentiviral SIN gene therapy vector for 12 h in presence of the compounds indicated below and protamine sulfate. After the 12 h transduction period, the medium was exchanged by above mentioned medium, and cells were transferred to 12-well plates in which they were cultured in a volume of 1 ml for 5 to 7 days depending on cell density. Thereafter, medium was exchanged by fresh medium, and cells were cultured in 2 ml for another 6 days. At day 12 post transduction, DNA was isolated, and vector copy number (VCN) was quantified by qPCR. All experiments were conducted in triplicates. For negative control, a triplicate of non-transduced cells was cultured as described. To determine the baseline of transduction efficacy in presence of only protamine sulfate, cells were incubated with MOI 1, MOI 3 or MOI 5 of the lentiviral SIN vector in presence of 4 μg/mL protamine sulfate.
After 10 to 12 days, non-integrated pro-viral DNA was diluted out due to the proliferation of cells in the plate and VCNs were quantified thereafter by qPCR. Every condition was tested in triplicates and the average of VCNs of triplicates for each individual condition was calculated. To evaluate the transduction enhancement activity of the tested compounds, average VCNs of cells transduced in the presence of protamine sulfate was set as 1, and enhancement of transduction was expressed as X-fold increase relative to transduction in the presence of protamine sulfate only.

Human CD34+HSC = test: Lentiviral SIN vector transduction of CD34+ HSC at MOI 20 with or without 1% DMSO, VCN; format: cell-based; conditions: 2 h pre-stimulation and 16 h incubation, X-Vivo 20, VCN without DMSO 0.915
Method: Cells were transduced in the absence and presence of 1% DMSO.
The transduction process comprised a 2 h pre-stimulation period in presence of 1% DMSO, followed by 16 h incubation of pre-stimulated cells with the gene therapy vector with an MOI 20 in presence of 1% DMSO.

[1] = MOI of 1, 5 μM Silibinin, 5 μM Resveratrol, 1 μM Everolimus, 0,4 μM Midostaurin, 100 μM Nystatin, 3 μM Natamycin

Compound: C[C@@H]1[C@H](O)[C@@H](C)/C=C/C=C/C=C/C=C/C=C/C=C/C=C/[C@H](O[C@@H]2O[C@H](C)[C@@H](O)[C@H](N)[C@@H]2O)C[C@@H]2O[C@](O)(C[C@@H](O)C[C@@H](O)[C@H](O)CC[C@@H](O)C[C@@H](O)CC(=O)O[C@H]1C)C[C@H](O)[C@H]2C(=O)O [Amphotericin B]
- transduction efficiency of a target cell, single enhancer (result in words) (target cell): enhances the transduction efficiency
- suitability of approved therapeutic compounds as transduction enhancers (result in words) (target cell): efficient transduction enhancers
- increase in the efficiency of lentiviral transduction (VCN), fold induction rel. to PS (human CD34-positive HSC; [1]): (factor 3) fold
- increase in the efficiency of lentiviral transduction (VCN), fold induction rel. to PS (human CD34-positive HSC; MOI of 3, 1 μM Everolimus): (factor 2.2) fold

Compound: C[S+](C)[O-] [DMSO, Dimethyl sulfoxide]
- transduction efficiency of a target cell, single enhancer (result in words) (target cell): enhances the transduction efficiency
- vector copy number (VCN) (Human CD34+HSC): 1.16

Compound: CCCCC[C@H](O)/C=C/[C@H]1[C@H](O)CC(=O)[C@@H]1C/C=C\CCCC(=O)O [Prostaglandin E2]
- transduction efficiency of a target cell, single enhancer (result in words) (target cell): enhances the transduction efficiency

Compound: 2,3-Dihydro-3-(4-hydroxy-3-methoxyphenyl)-2-(hydroxymethyl)-6-(3,5,7-trihydroxy-4-oxobenzopyran-2-yl)benzodioxin [Silibinin]
- transduction efficiency of a target cell, single enhancer (result in words) (target cell): enhances the transduction efficiency
- suitability of approved therapeutic compounds as transduction enhancers (result in words) (target cell): efficient transduction enhancers
- increase in the efficiency of lentiviral transduction (VCN), fold induction rel. to PS (human CD34-positive HSC; [1]): (factor 4.8) fold

Compound: C[C@@H]1[C@H](O)[C@@H](C)/C=C/C=C/CC/C=C/C=C/C=C/C=C/C(O[C@H]2O[C@H](C)[C@@H](O)[C@H](N)[C@@H]2O)CC2O[C@](O)(CC(O)C(O)CCC(O)CC(O)CC(O)CC(=O)O[C@H]1C)CC(O)C2C(=O)O (stereo partly shown) [Nystatin]
- transduction efficiency of a target cell, single enhancer (result in words) (target cell): enhances the transduction efficiency
- suitability of approved therapeutic compounds as transduction enhancers (result in words) (target cell): efficient transduction enhancers
- increase in the efficiency of lentiviral transduction (VCN), fold induction rel. to PS (human CD34-positive HSC; [1]): (factor 2.6) fold

Compound: CO[C@@H]1[C@H](N(C)C(=O)c2ccccc2)C[C@H]2O[C@]1(C)n1c3ccccc3c3c4c(c5c6ccccc6n2c5c31)C(=O)NC4 [Midostaurin]
- increase in the efficiency of lentiviral transduction (VCN), fold induction rel. to PS (human CD34-positive HSC; [1]): (factor 4.2) fold

Compound: CO[C@H]1C[C@@H]2CC[C@@H](C)[C@@](O)(O2)C(=O)C(=O)N2CCCC[C@H]2C(=O)O[C@H]([C@H](C)C[C@@H]2CC[C@@H](OCCO)[C@H](OC)C2)CC(=O)[C@H](C)/C=C(\C)[C@@H](O)[C@@H](OC)C(=O)[C@H](C)C[C@H](C)/C=C/C=C/C=C/1C [Everolimus]
- transduction efficiency of a target cell, single enhancer (result in words) (target cell): enhances the transduction efficiency
- increase in the efficiency of lentiviral transduction (VCN), fold induction rel. to PS (human CD34-positive HSC; [1]): (factor 13.5) fold
- increase in the efficiency of lentiviral transduction (VCN), fold induction rel. to PS (human CD34-positive HSC; MOI of 3, 1 μM Everolimus): (factor 2.5) fold

Compound: Nc1nc(F)nc2c1ncn2[C@@H]1O[C@H](CO)[C@@H](O)[C@@H]1O [Fludarabine]
- suitability of approved therapeutic compounds as transduction enhancers (result in words) (target cell): efficient transduction enhancers

Compound: C[C@@H]1C/C=C/C=C/C=C/C=C/[C@H](O[C@@H]2O[C@H](C)[C@@H](O)[C@H](N)[C@@H]2O)C[C@@H]2O[C@](O)(C[C@@H](O)C[C@H]3O[C@@H]3/C=C/C(=O)O1)C[C@H](O)[C@H]2C(=O)O [Natamycin]
- suitability of approved therapeutic compounds as transduction enhancers (result in words) (target cell): efficient transduction enhancers
